Target: T1, Human CaV2.2 channels (Homo sapiens, UniProt Q00975)
T1 construct: expressed in transfected cells
Experiment: Fluorescence assay for CaV2.2 channels using potassium depolarization to induce channel opening (FLIPR, Fluo 4)
Format: cell-based
Settings: 3 μM test compound; alternative assay buffer 30 mM KCl (inactivated channel state); HEK293 cells stably expressing human CaV2.2
Description: In the process, the Ca^2+ influx is quantified in the FLIPR assay with the aid of a Ca^2+-sensitive dye (type Fluo-4, Molecular Probes Europe BV, Leiden, the Netherlands) in a fluorescent imaging plate reader (FLIPR 3, Molecular Devices, Sunnyvale, USA), as described hereinafter.
2.1 Fluorescence Assay for CaV2.2 Channels Using Potassium Depolarization to Induce Channel Opening
Human CaV2.2 channels were stably expressed in HEK293 cells together with alpha2-delta and beta subunits of voltage gated calcium channels. In addition, an inwardly rectifying potassium channel (Kir2.3) was stably expressed in these cells to augment control of the cell membrane potential by the concentration of extracellular potassium ions. Raise of the extracellular potassium concentration leads to depolarization of the membrane potential and thus regulates the voltage dependent state of CaV2.2 channels. For preparation, cells were seeded in black poly-D-lysine coated 96-well plates (Becton Dickinson, Biocoat 4640) in 100 μL medium [500 mL DMEM/F-12 plus Glutamax (Invitrogen 31331-093) plus 5.5 mL MEM NEAA 100× (Invitrogen 11140-035) plus 50 mL FBS decomplemented (Invitrogen 10270-106) plus 200 μg/mL Geneticin (Invitrogen 10131-027) plus 50 μg/mL Hygromycin B (Invitrogen 10687-010) plus 2 μg/mL Blasticidin (anti-bl5b Invivo-Gen) plus 0.2 μg/mL Puromycin (A 11138-03)] at a cell density of 30.000 cells per well. Plates were incubated at 37° C. (5% CO2) for 20 to 23 h. On the day of experiment medium was discarded and cells were loaded with Fluo 4 by addition of 100 μL of basic assay buffer (10 mM HEPES, 1 mM KCl, 149 mM NaCl, 0.8 mM CaCl2, 1.7 mM MgCl2, 10 mM Glucose, 0.1% BSA. pH 7.4) containing 2 μM Fluo 4 (Molecular Probes; F-14201), 0.01% pluronic acid (Molecular Probes; P-6866) and 2.5 mM probenecid (Molecular Probes; P36400). Cells were incubated in the dark at 25° C. for 60 min. Then dye containing buffer was discarded and 100 μL basic (1 mM KCl) or alternative (30 mM KCl) assay buffer was added. The alternative assay buffer contained altered concentrations of KCl (30 mM) and NaCl (120 mM) and was used in order to promote the inactivated channel state. After that 25 μL of basic or alternative assay buffer with or without test compound were added and cells were incubated again in the dark at 25° C. for 15 min. Fluorescence intensity was measured on a FLIPR 3 instrument (Molecular Devices Corp., Sunnyvale, Calif.) with excitation at 480 nm and emission at 535 nm. After continuously reading fluorescence for 30 sec, 50 μL of basic assay buffer containing 210 mM KCl (NaCl omitted) were added for depolarization. Peak fluorescent signal intensity was determined and the amplitude of the peak signal, normalized to base line, was used to measure channel inhibition by test compounds.

T1 sequence (P54289 947-1103): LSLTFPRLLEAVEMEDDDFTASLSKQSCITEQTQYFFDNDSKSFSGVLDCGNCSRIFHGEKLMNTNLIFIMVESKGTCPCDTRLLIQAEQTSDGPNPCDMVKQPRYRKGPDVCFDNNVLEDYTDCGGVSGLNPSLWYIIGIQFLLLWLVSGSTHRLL
T1 sequence (P54289 25-946): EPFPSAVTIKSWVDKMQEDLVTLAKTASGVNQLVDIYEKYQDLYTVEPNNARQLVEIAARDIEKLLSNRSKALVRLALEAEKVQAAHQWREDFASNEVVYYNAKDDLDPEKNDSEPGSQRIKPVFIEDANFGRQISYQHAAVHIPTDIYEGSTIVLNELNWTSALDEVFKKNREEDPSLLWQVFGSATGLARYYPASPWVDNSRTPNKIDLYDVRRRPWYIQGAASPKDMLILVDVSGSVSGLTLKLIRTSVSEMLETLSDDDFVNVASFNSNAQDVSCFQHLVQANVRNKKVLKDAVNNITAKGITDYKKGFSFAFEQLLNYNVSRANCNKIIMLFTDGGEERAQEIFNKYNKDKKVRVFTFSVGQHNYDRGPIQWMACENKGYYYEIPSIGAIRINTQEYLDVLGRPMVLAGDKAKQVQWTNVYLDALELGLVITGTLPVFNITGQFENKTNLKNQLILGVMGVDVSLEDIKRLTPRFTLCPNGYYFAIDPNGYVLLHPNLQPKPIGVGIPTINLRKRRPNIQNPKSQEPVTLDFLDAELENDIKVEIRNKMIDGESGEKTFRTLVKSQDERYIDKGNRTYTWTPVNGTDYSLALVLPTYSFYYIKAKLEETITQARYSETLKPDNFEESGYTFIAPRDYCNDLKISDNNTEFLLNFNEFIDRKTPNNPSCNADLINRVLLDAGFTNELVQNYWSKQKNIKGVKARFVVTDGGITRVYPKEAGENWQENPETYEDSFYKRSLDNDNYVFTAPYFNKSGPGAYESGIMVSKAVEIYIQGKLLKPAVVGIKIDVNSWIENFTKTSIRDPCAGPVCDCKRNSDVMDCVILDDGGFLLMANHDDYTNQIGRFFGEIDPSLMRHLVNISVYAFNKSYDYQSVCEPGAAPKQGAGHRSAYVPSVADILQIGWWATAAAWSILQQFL
T1 sequence (P54284 whole entry, further chain): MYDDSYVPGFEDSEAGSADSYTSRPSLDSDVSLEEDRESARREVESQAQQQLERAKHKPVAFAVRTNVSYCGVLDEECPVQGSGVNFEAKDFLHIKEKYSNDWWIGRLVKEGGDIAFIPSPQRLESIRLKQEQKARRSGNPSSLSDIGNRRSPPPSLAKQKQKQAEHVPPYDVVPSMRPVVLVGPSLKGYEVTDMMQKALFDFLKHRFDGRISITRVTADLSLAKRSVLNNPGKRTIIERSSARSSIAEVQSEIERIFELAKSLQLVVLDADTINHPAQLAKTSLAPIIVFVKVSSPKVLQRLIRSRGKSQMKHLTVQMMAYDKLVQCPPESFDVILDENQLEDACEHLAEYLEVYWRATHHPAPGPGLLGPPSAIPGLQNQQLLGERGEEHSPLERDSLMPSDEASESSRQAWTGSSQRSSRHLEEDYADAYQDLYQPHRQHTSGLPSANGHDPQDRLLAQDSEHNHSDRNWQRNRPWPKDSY
T1 sequence (Q00975 whole entry): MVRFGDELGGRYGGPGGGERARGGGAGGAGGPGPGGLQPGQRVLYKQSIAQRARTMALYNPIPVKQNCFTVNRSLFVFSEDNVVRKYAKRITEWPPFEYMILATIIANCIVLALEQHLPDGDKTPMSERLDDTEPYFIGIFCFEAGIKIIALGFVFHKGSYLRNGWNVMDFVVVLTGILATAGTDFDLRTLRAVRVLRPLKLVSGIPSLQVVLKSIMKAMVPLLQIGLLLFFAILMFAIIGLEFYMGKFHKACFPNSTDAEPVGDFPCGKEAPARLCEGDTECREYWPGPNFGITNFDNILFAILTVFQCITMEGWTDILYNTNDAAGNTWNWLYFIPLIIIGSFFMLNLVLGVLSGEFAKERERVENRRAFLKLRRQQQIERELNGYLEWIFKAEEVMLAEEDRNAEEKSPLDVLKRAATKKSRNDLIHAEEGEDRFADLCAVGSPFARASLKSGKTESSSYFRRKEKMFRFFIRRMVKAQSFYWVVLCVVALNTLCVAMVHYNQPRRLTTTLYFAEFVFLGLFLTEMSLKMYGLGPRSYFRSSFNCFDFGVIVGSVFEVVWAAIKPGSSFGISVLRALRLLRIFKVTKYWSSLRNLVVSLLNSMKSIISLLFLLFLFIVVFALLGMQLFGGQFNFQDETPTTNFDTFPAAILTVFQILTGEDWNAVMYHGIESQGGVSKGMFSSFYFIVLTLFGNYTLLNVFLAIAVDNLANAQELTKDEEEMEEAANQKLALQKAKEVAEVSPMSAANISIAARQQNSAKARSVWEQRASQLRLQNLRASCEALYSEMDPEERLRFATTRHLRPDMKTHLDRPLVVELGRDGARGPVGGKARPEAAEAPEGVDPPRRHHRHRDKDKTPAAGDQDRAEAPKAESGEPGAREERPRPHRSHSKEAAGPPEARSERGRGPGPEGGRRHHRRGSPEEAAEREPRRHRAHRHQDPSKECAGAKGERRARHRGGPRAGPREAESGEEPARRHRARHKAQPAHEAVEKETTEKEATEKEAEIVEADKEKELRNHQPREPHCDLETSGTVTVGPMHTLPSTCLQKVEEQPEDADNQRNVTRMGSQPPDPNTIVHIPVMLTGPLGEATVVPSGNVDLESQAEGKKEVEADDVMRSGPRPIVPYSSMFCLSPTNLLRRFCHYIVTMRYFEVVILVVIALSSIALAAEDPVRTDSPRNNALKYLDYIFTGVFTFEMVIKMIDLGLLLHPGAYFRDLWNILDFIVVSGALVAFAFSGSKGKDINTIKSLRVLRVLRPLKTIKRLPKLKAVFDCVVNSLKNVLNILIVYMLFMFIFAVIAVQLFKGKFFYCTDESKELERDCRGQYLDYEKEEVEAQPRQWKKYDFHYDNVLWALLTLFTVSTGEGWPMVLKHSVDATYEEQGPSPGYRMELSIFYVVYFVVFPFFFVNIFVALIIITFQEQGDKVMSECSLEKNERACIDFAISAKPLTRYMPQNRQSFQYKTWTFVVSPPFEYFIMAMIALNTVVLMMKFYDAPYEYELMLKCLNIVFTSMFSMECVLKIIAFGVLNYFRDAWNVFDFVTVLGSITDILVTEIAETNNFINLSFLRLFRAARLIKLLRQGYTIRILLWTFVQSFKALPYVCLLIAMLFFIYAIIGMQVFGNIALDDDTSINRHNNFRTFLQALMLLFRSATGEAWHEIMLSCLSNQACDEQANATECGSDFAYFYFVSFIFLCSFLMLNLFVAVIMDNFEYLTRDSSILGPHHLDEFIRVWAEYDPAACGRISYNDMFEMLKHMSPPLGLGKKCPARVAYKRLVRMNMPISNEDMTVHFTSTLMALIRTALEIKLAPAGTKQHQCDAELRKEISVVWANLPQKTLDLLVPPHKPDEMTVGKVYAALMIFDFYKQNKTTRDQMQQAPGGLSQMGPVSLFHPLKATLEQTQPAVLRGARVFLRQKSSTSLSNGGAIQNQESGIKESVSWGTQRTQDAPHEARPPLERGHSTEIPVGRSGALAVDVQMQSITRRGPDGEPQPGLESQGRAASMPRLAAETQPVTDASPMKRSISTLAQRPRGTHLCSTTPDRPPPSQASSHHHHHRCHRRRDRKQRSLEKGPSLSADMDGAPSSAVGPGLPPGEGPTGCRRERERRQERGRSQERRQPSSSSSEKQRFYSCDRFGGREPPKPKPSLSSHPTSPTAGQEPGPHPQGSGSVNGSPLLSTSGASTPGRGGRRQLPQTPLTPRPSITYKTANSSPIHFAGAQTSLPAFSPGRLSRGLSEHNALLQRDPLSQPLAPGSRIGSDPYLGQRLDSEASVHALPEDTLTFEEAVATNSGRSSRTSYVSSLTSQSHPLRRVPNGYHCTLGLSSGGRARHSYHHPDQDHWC

Compound	Activity Category: %-Inhib (CaV2.2) @3 μM @30 mM KCl
CC1(S(=O)(=O)c2cccc(C(F)(F)F)c2)CCOC(c2ccc(S(C)(=O)=O)nc2)C1 (centres unmarked) [SC-338, 2-Methylsulfonyl-5-[4-methyl-4-[[3-(trifluoromethyl)phenyl]sulfonyl]-tetrahydro-pyran-2-yl]-pyridine]	B (%-Inhibition >75% up to ≤95%)
Cn1nc(C(F)(F)F)cc1C1CC(C)(S(=O)(=O)c2cccc(C(F)(F)F)c2)CCO1 (centres unmarked) [SC-345, 1-Methyl-5-[4-methyl-4-[[3-(trifluoromethyl)phenyl]sulfonyl]-tetrahydro-pyran-2-yl]-3-(trifluoromethyl)-1H-pyrazole]	A (%-Inhibition >95%)
CC1(S(=O)(=O)c2cccc(C(F)(F)F)c2)CCOC(c2cncc(C(F)(F)F)c2)C1 (single isomer, unassigned) [SC-116, 3-[4-Methyl-4-[[3-(trifluoromethyl)phenyl]sulfonyl]-tetrahydro-pyran-2-yl]-5-(trifluoromethyl)-pyridine]	A (%-Inhibition >95%)
CN(C)c1ccc(C2CC(C)(S(=O)(=O)c3cccc(C(F)(F)F)c3)CCO2)cn1 (centres unmarked) [SC-331, Dimethyl-[5-[4-methyl-4-[[3-(trifluoromethyl)phenyl]sulfonyl]-tetrahydro-pyran-2-yl]-pyridin-2-yl]-amine]	A (%-Inhibition >95%)
COc1cc(C#N)c(C2CC(C)(S(=O)(=O)c3cccc(C(F)(F)F)c3)CCO2)cn1 (centres unmarked) [SC-261, 2-Methoxy-5-[4-methyl-4-[[3-(trifluoromethyl)phenyl]sulfonyl]-tetrahydro-pyran-2-yl]-isonicotinonitrile]	C (%-Inhibition >40% up to ≤75%)
Cc1ccc(OCC2CC(C)(S(=O)(=O)c3cccc(C(F)(F)F)c3)CCO2)cn1 (single isomer, unassigned) [SC-113, 2-Methyl-5-[[4-methyl-4-[[3-(trifluoromethyl)phenyl]sulfonyl]-tetrahydro-pyran-2-yl]-methoxy]-pyridine]	B (%-Inhibition >75% up to ≤95%)
CCC1(S(=O)(=O)c2cccc(C(F)(F)F)c2)CCOC(c2nnc(C(F)(F)F)o2)C1 (centres unmarked) [SC-240, 2-[4-Ethyl-4-[[3-(trifluoromethyl)phenyl]sulfonyl]-tetrahydro-pyran-2-yl]-5-(trifluoromethyl)-[1,3,4]oxadiazole]	C (%-Inhibition >40% up to ≤75%)
CC1(S(=O)(=O)c2cccc(C(F)(F)F)c2)CCOC(c2ncc(C(F)(F)F)cc2S(C)(=O)=O)C1 (centres unmarked) [SC-356, 3-Methylsulfonyl-2-[4-methyl-4-[[3-(trifluoromethyl)phenyl]sulfonyl]-tetrahydro-pyran-2-yl]-5-(trifluoromethyl)-pyridine]	A (%-Inhibition >95%)
Cc1cc(S(C)(=O)=O)cnc1C1CC(C)(S(=O)(=O)c2cccc(OC(F)(F)F)c2)CCO1 (centres unmarked) [SC-450, 3-Methyl-5-methylsulfonyl-2-[4-methyl-4-[[3-(trifluoromethyloxy)-phenyl]sulfonyl]-tetrahydro-pyran-2-yl]-pyridine]	C (%-Inhibition >40% up to ≤75%)
COc1cc(OC(F)F)c(C2CC(C)(S(=O)(=O)c3cccc(C(F)(F)F)c3)CCO2)cn1 (centres unmarked) [SC-254, 4-(Difluoro-methoxy)-2-methoxy-5-[4-methyl-4-[[3-(trifluoromethyl)phenyl]sulfonyl]-tetrahydro-pyran-2-yl]-pyridine]	A (%-Inhibition >95%)

Same assay, conditions: HEK293, 3 μM test compound; alternative assay buffer 30 mM KCl (inactivated channel state); HEK293 cells stably expressing human CaV2.2; read-out: Activity Category: %-Inhib (CaV2.2) @3 μM @30 mM KCl

Compound	inhibition at 3 µM [%]
COc1cc(OC)c(C2CC(C)(S(=O)(=O)c3cccc(C(F)(F)F)c3)CCO2)cn1 (centres unmarked) [SC-245, 2,4-Dimethoxy-5-[4-methyl-4-[[3-(trifluoromethyl)phenyl]sulfonyl]-tetrahydro-pyran-2-yl]-pyridine]	75 to 95
COc1ccc(C2CC(C)(S(=O)(=O)c3cccc(C(F)(F)F)c3)CCO2)cn1 (centres unmarked) [SC-353, 2-Methoxy-5-[4-methyl-4-[[3-(trifluoromethyl)phenyl]sulfonyl]-tetrahydro-pyran-2-yl]-pyridine]	75 to 95
Cn1nc(C2CC2)cc1C1CC(C)(S(=O)(=O)c2cccc(C(F)(F)F)c2)CCO1 (centres unmarked) [SC-431, 3-Cyclopropyl-1-methyl-5-[4-methyl-4-[[3-(trifluoromethyl)phenyl]sulfonyl]-tetrahydro-pyran-2-yl]-1H-pyrazole]	75 to 95
CC1(S(=O)(=O)c2cccc(C(F)(F)F)c2)CCOC(c2ccc(OC(F)F)nc2)C1 (racemic) [SC-417, 2-(Difluoro-methoxy)-5-[4-methyl-4-[[3-(trifluoromethyl)phenyl]sulfonyl]-tetrahydro-pyran-2-yl]-pyridine]	> 95
CC(C)Oc1ccc(C2CC(S(=O)(=O)c3cccc(C(F)(F)F)c3)CCO2)cn1 (centres unmarked) [SC-339, 2-Isopropoxy-5-[4-[[3-(trifluoromethyl)phenyl]sulfonyl]-tetrahydro-pyran-2-yl]-pyridine]	> 95
CC1(S(=O)(=O)c2cccc(C(F)(F)F)c2)CCOC(c2nc(C3CC3)co2)C1 (centres unmarked) [SC-158, 4-Cyclopropyl-2-[4-methyl-4-[[3-(trifluoromethyl)phenyl]sulfonyl]-tetrahydro-pyran-2-yl]-oxazole]	> 95
O=S(=O)(c1cccc(C(F)(F)F)c1)C1CCOC(c2ccc(C(F)(F)F)nc2)C1 (centres unmarked) [SC-342, 2-(Trifluoromethyl)-5-[4-[[3-(trifluoromethyl)phenyl]sulfonyl]-tetrahydro-pyran-2-yl]-pyridine]	75 to 95
CC1(S(=O)(=O)c2cccc(C(F)(F)F)c2)CCOC(c2cncc(C3CC3)c2)C1 (centres unmarked) [SC-325, 3-Cyclopropyl-5-[4-methyl-4-[[3-(trifluoromethyl)phenyl]sulfonyl]-tetrahydro-pyran-2-yl]-pyridine]	> 95
COc1cc(OC(F)F)c(C2CC(C)(S(=O)(=O)c3cccc(C(F)(F)F)c3)CCO2)cn1 (centres unmarked) [SC-253, 4-(Difluoro-methoxy)-2-methoxy-5-[4-methyl-4-[[3-(trifluoromethyl)phenyl]sulfonyl]-tetrahydro-pyran-2-yl]-pyridine]	75 to 95
COc1cc(C)c(C2CC(C)(S(=O)(=O)c3cccc(C(F)(F)F)c3)CCO2)cn1 (centres unmarked) [SC-248, 2-Methoxy-4-methyl-5-[4-methyl-4-[[3-(trifluoromethyl)phenyl]sulfonyl]-tetrahydro-pyran-2-yl]-pyridine]	75 to 95
CC1(S(=O)(=O)c2cccc(C(F)(F)F)c2)CCOC(c2ccc(N3CCCC3)nc2)C1 (racemic) [SC-406, 5-[4-Methyl-4-[[3-(trifluoromethyl)phenyl]sulfonyl]-tetrahydro-pyran-2-yl]-2-pyrrolidin-1-yl-pyridine]	> 95
CC1(S(=O)(=O)c2cccc(C(F)(F)F)c2)CCOC(c2ncc(Cl)cc2S(C)(=O)=O)C1 (centres unmarked) [SC-226, 5-Chloro-3-methylsulfonyl-2-[4-methyl-4-[[3-(trifluoromethyl)phenyl]sulfonyl]-tetrahydro-pyran-2-yl]-pyridine]	75 to 95
CC1(S(=O)(=O)c2cccc(C(F)(F)F)c2)CCOC(c2ccc(C3CC3)cn2)C1 (centres unmarked) [SC-103, 5-Cyclopropyl-2-[4-methyl-4-[[3-(trifluoromethyl)phenyl]sulfonyl]-tetrahydro-pyran-2-yl]-pyridine]	> 95
CC1(S(=O)(=O)c2cccc(C(F)F)c2)CCOC(c2ncc(S(C)(=O)=O)cc2Cl)C1 (centres unmarked) [SC-265, 3-Chloro-2-[4-[[3-(difluoro-methyl)-phenyl]sulfonyl]-4-methyl-tetrahydro-pyran-2-yl]-5-methylsulfonyl-pyridine]	40 to 75
COc1cc(F)c(C2CC(C)(S(=O)(=O)c3cccc(C(F)(F)F)c3)CCO2)cn1 (centres unmarked) [SC-257, 4-Fluoro-2-methoxy-5-[4-methyl-4-[[3-(trifluoromethyl)phenyl]sulfonyl]-tetrahydro-pyran-2-yl]-pyridine]	75 to 95
CC1(S(=O)(=O)c2cccc(C(F)(F)F)c2)CCOC(c2cnc(C3CC3)cn2)C1 (racemic) [SC-328, 2-Cyclopropyl-5-[4-methyl-4-[[3-(trifluoromethyl)phenyl]sulfonyl]-tetrahydro-pyran-2-yl]-pyrazine]	> 95

From patent US9926302B2, “Heteroaryl substituted heterocyclyl sulfones” (priority 2014, dated 2018)
